In patent publication US20160193240A1, “Ulmoside-A: Useful For Prevention Or Cure Of Metabolic Diseases” (COUNCIL OF SCIENTIFIC & INDUSTRIAL RESEARCH, priority 2013, published 2016):

System: PGC-1α
Assay: PGC-1α acetylation status (immunoprecipitation, anti-acLys western) in C2C12 myotubes
Type: cell-based, mouse
Conditions: 10 nM, 6 hours
Description: C. ULMA induces PGC-1α deacetylation. C2C12 myotubes plated in 10 cm dish were treated with vehicle (0.1% vol/vol DMSO) or 10 nM ULMA in DMSO for 6 h. The cell lysates were then incubated with 5 μg anti-PGC-1α antibody (Calbiochem) for 12 h at 4° C. on a rotating wheel set at 10 RPM. 20 μl of protein A and protein G sepharose beads (Sigma; 1:1) was then added to the solution and the incubation was continued for another 2 h. The tubes were then centrifuged (1000 RPM) for 1 min and the supernatant was discarded. The pellets were washed 7 times. The beads were boiled in 50 μl 2× lammeli buffer for 5 min and cooled immediately on ice and following quick spin, the supernatants were resolved by denaturing polyacrylamide gel electrophoresis and western blotted with anti-acetylated lysine (acLys) antibody. Data represent one of three independent experiments displaying identical pattern. […]

SMILES: O=C1c2c(cc(O)c([C@@H]3O[C@H](CO)[C@@H](O)[C@H](O)[C@H]3O)c2O)O[C@@H](c2ccc(O)c(O)c2)[C@@H]1O [ULMA, (2S,3S)-(+)-3′,4′,5,7-tetrahydroxydihydroflavonol-6-C-β-D-glucopyranoside]
- level of acetylated PGC-1α: decreased
